# Results from patent US20080145317A1, “EFFERVESCENT FORMULATIONS OF FLORFENICOL FOR ADDITION IN DRINKING WATER SYSTEMS” (Schering Corporation, priority 2006, published 2008).
# Legend:
# [1] = Dissolution test, USP apparatus 2, paddle agitation at 50 rpm, Milli-Q water; assay type: physicochemical; details: 25° C., 0.1 mg/mL final
# Description: The dissolution medium was Milli-Q water maintained at a temperature of 25° C. The effervescent formulations were added directly to the water in the correct amount to achieve a final concentration of 0.1 mg/mL of florfenicol. Aliquots of the resulting solution were withdrawn and analyzed using either UV-VIS spectrophotometry or HPLC, the latter to exclude excipient contribution or degradation of florfenicol. For HPLC analysis, an organic/aqueous mobile phase was used for the separation on a C18, reverse phase column. Detection was performed by UV absorption spectrometry. The percent dissolved was calculated versus an external reference standard prepared at the nominal concentration of the analyte. Pure florfenicol was analyzed as a comparator to assess the effectiveness of the effervescent formulation. Referring now to the tables below, it can be seen that pure florfenicol was only 25% dissolved in 15 minutes and 43% dissolved within 60 minutes. […] Therefore, the effervescent formulation increased the florfenicol rate of dissolution and allowed a complete dissolution within 5 minutes of the addition to water.
# [2] = stated in background, no method; cited from earlier work
smiles,measurement,setting,value
"CS(=O)(=O)c1ccc([C@@H](O)[C@@H](CF)NC(=O)C(Cl)Cl)cc1 (relative stereo) [Pure Florfenicol, [R-(R*, S*)]-2,2-Dichloro-N-[1-(fluoromethyl)-2-hydroxy-2-[4-[(methylsulfonyl)phenyl]-ethyl]acetamide]",% Drug in Solution,"[1]; Time 0, pure florfenicol in Milli-Q water",0%
same,% Drug in Solution,"[1]; Time 15 (minutes), Milli-Q water",25%
same,% Drug in Solution,"[1]; Time 30 (minutes), Milli-Q water",35%
same,% Drug in Solution,"[1]; Time 45 (minutes), Milli-Q water",36%
same,% Drug in Solution,"[1]; Time 60 (minutes), Milli-Q water",43%
same,water-solubility,[2],1.23 mg/mL
